Like-named read-outs stand apart in the source and are kept apart here.
Key:
[1] = Study 1: single-dose pharmacokinetics in mild or moderate hepatic impairment and matched healthy controls; assay type: in vivo, human; settings: for AUC(0-inf) / AUC(0-t) / Cmax / half-life / Tmax: both sexes, human, plasma, po, 20 mg, vilazodone 20 mg single oral dose
Description: The pharmacokinetics, tolerability, and safety of vilazodone were investigated in two separate trials involving participants with hepatic impairment, compared with healthy controls. An Open-label, parallel-group, single-dose pharmacokinetic studies, a single, oral dose of vilazodone (20 mg with increased hardness) was administered to participants with mild, moderate, or severe hepatic impairment or individually matched controls. Outcomes included pharmacokinetic parameters and safety (vital signs, clinical laboratory evaluations, ECG, and adverse events [AEs]). Plasma samples were analyzed using validated LC/MS/MS methods.
Data from two, open-label, parallel-group, single-dose pharmacokinetic studies investigated single-dose vilazodone (20 mg with increased hardness) in participants with hepatic impairment and normal hepatic function. The first study (Study 1) included participants with mild or moderate hepatic impairment and healthy controls. The second study (Study 2) included participants with severe hepatic impairment or healthy participants. These studies were both designed in accordance with the FDA guidance for evaluation of pharmacokinetics in the presence of hepatic impairment. The differences between the study protocols were minimal, so both methodologies are described together, with any differences noted below.
Participants were men and women, 18 to 70 years of age, with a body mass index (BMI) of 18-42 kg/m^2. Women were not pregnant or breastfeeding and agreed to utilize a medically accepted form of contraception during the study (as did men in Study 2). In Study 2, participants were also required to be non-smokers or light smokers (fewer than 10 cigarettes per day; there was no stipulation in Study 1) and to have a sitting pulse rate of 50-100 bpm at screening and prior to dosing on Day 1. […] Each healthy control was matched with a hepatically impaired participant. Control participants in the Study 1 were matched with a hepatically impaired individual according to age (±10 years), sex, and BMI (±15%). Control participants in Study 2 were matched with a hepatically impaired individual according to age (±5 years), sex, and weight (±10%).
Participants with hepatic dysfunction were classified according to the Child-Pugh hepatic dysfunction staging system as having mild (5-6 points) or moderate (7-9 points) hepatic impairment (Study 1), or severe impairment (10-15 points; Study 2). Participants with severe impairment also had chronic liver disease and/or compensated cirrhosis, as evidenced by liver biopsy, computerized tomography or ultrasonic evidence of hepatic fibrosis, clinical evidence of chronic liver disease, or a colloid shift on a liver-spleen scan. Exclusion criteria included the following: a clinical diagnosis or history of depression; treatment with antidepressants, anxiolytics, psychoactive medications (including herbal supplements), other serotonergic drugs, or drugs that inhibit CYP3A4 (eg, ketoconazole, diltiazem, macrolide antibiotics); a hypersensitivity to vilazodone or other SSRIs or 5-HT agonists; history or evidence of alcohol or substance abuse, cancer, human immunodeficiency virus, hepatitis B (Study 1 and healthy controls, both studies) hepatitis C (healthy controls, both studies), or other clinically significant illnesses or medical conditions. Participants with severe hepatic impairment were excluded if they had bleeding diathesis, advanced ascites requiring large-volume paracentesis within 1 week of dosing, esophageal bleeding within the previous 8 weeks, history of portosystemic shunt or hepatic transplant, or evidence of hepatic encephalopathy, hepatorenal syndrome, or other evidence of rapid hepatic deterioration.
Participants were not allowed to have previously taken vilazodone or participated in any clinical investigation requiring repeated blood draws within 60 days of dosing, or donated blood or plasma within 60 or 30 days, respectively.

[2] = tested on: plasma proteins; experiment: Vilazodone protein binding by equilibrium dialysis (Studies 1 and 2); assay type: in vitro ADME; settings: both sexes, human, plasma of study participants, read-out: mean percent free fraction in plasma
Description: In both studies, additional samples (6 mL each) were collected to determine vilazodone protein binding: in Study 1, these samples were collected in duplicate at predose hour 0 and postdose hours 6 and 12; in Study 2, the samples were collected at predose hour 0 and postdose hours 4 and 12, with an additional sample (13 mL) collected at hour 0 for the determination of albumin concentration.
The plasma concentrations of vilazodone (Studies 1 and 2) and its metabolite M17 (Study 2), vilazodone concentrations in urine (Study 1), and protein binding were determined using liquid chromatography with tandem mass spectrometry (LC/MS/MS) methodologies that have been validated for the following ranges: plasma vilazodone, 0.75 to 250 ng/mL (Study 1) and 0.5 to 250 ng/mL (Study 2); plasma M17, 0.25-125 ng/mL; urine vilazodone, 1.0-200 ng/mL; vilazodone protein binding, high range (sample compartment) 2.7-108 ng/mL, low range (buffer compartment) 0.1-5.4 ng/mL. The extent of vilazodone binding to plasma proteins was determined using equilibrium dialysis.

[3] = biological target: norepinephrine reuptake site (Homo sapiens, UniProt P23975); settings: cited from earlier work
[4] = biological target: dopamine reuptake site (Homo sapiens, UniProt Q01959); settings: cited from earlier work
[5] = Mild impairment/control, 20 mg single dose
[6] = Moderate impairment/control, 20 mg single dose
[7] = Control matched to Mild Impairment n = 8
[8] = Control matched to Moderate Impairment n = 8

norepinephrine reuptake site, sequence (P23975 whole entry): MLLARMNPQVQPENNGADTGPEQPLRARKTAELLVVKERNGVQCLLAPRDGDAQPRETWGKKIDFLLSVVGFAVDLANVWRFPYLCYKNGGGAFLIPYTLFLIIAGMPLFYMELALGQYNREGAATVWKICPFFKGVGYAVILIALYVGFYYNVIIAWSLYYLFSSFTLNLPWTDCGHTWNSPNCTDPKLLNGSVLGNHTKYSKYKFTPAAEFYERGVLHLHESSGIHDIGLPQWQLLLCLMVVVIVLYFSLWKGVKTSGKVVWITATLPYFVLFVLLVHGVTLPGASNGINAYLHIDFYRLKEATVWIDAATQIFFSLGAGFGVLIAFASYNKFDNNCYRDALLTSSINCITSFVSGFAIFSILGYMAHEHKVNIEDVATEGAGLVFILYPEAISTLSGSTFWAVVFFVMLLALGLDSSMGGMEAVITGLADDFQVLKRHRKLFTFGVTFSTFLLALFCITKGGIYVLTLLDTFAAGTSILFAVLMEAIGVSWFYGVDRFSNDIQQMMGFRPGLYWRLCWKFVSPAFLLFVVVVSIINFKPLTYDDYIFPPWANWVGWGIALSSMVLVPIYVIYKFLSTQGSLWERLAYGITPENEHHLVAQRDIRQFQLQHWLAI
dopamine reuptake site, sequence (Q01959 whole entry): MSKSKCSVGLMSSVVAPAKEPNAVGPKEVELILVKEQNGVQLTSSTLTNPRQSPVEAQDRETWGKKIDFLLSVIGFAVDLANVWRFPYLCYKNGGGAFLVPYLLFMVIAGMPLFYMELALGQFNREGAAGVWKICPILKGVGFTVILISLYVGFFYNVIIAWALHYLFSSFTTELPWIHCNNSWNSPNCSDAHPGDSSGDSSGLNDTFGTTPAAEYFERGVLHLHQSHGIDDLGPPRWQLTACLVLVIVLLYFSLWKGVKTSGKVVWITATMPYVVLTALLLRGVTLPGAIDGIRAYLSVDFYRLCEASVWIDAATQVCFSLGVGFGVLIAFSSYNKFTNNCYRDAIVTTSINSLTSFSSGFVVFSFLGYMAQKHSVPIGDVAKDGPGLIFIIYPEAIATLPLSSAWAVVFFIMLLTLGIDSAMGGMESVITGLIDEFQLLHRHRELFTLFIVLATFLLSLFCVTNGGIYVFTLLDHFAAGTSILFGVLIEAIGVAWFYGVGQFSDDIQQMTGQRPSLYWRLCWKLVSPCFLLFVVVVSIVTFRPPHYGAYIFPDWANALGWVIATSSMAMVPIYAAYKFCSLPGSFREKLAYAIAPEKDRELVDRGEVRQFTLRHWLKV

For `Cl.N#Cc1ccc2[nH]cc(CCCCN3CCN(c4ccc5oc(C(N)=O)cc5c4)CC3)c2c1` [Vilazodone, 1-[4-(5-cyanoindol-3-yl)butyl]-4-(2-carbamoyl-benzofuran-5-yl)-piperazine hydrochloride], the “AUC0-t, Ratio of Geometric Means (%)” value [1, 5] was 97.7%, the “AUC0-∞, Ratio of Geometric Means (%)” value [1, 5] was 98.0% and the “Cmax, Ratio of Geometric Means (%)” value [1, 5] was 97.8%. For the same compound, the “AUC0-t, Ratio of Geometric Means (%)” value [1, 6] was 89.5%, the “AUC0-∞, Ratio of Geometric Means (%)” value [1, 6] was 90.5% and the “Cmax, Ratio of Geometric Means (%)” value [1, 6] was 97.2%. For the same compound, the AUC(0-inf) [1, 7] was 945 ± 169 ng·h/mL, the AUC(0-t) [1, 7] was 898 ± 168 ng·h/mL and the Cmax [1, 7] was 43.1 ± 13.1 ng/mL. It also gave a half-life [1, 7] of 25.9 ± 5.9 h, a Tmax ([1]; Control matched to Mild Impairment n = 8, read-out: Tmax (mean)) of 5 ± 1.5 h and a Tmax ([1]; Control matched to Mild Impairment n = 8, read-out: Tmax, Median) of 5 h. It also gave an AUC(0-inf) [1, 8] of 809 ± 231 ng·h/mL, an AUC(0-t) [1, 8] of 768 ± 229 ng·h/mL and a Cmax [1, 8] of 35.8 ± 10.7 ng/mL. For the same compound, the half-life [1, 8] was 25.4 ± 5.5 h, the Tmax ([1]; Control matched to Moderate Impairment n = 8, read-out: Tmax (mean)) was 4.9 ± 0.84 h and the Tmax ([1]; Control matched to Moderate Impairment n = 8, read-out: Tmax, Median) was 5 h. It also gave an AUC(0-inf) ([1]; Mild Impairment n = 8) of 1030 ± 506 ng·h/mL, an AUC(0-t) ([1]; Mild Impairment n = 8) of 984 ± 505 ng·h/mL and a Cmax ([1]; Mild Impairment n = 8) of 44.1 ± 16.5 ng/mL. For the same compound, the half-life ([1]; Mild Impairment n = 8) was 30.6 ± 8.2 h, the Tmax ([1]; Mild Impairment n = 8, read-out: Tmax (mean)) was 4.6 ± 1.6 h and the Tmax ([1]; Mild Impairment n = 8, read-out: Tmax, Median) was 4.5 h. For the same compound, the AUC(0-inf) ([1]; Moderate Impairment n = 8) was 727 ± 196 ng·h/mL, the AUC(0-t) ([1]; Moderate Impairment n = 8) was 683 ± 190 ng·h/mL and the Cmax ([1]; Moderate Impairment n = 8) was 34.2 ± 8.2 ng/mL. It also gave a half-life ([1]; Moderate Impairment n = 8) of 29.4 ± 11.4 h, a Tmax ([1]; Moderate Impairment n = 8, read-out: Tmax (mean)) of 4.1 ± 1.8 h and a Tmax ([1]; Moderate Impairment n = 8, read-out: Tmax, Median) of 4 h. The “mean recovery of unchanged vilazodone in urine over 96 hours” value ([1]; healthy participants and mild and moderate hepatic impairment, 20 mg single dose) was ≤ 1.3 % of the dose, the fraction unbound ([2]; all participants with severe hepatic impairment) was 0.0224 and the fraction unbound ([2]; healthy controls) was 0.01 to 0.014. For the same compound, the fraction unbound ([2]; participants with mild or moderate hepatic impairment) was 0.016, the fraction unbound ([2]; participants with severe hepatic impairment who did not vomit) was 0.0213 and the “binding to norepinephrine reuptake site” value [3] was “not”. The “binding to dopamine reuptake site” value [4] was “not”.

From patent US20150157575A1, “Pharmaceutical Formulations Comprising Vilazodone” (Forest Laboratories Holdings Ltd., priority 2013, published 2015)
